The target in assay [1] is Beta-2 adrenergic receptor (Homo sapiens, UniProt P07550). The experiment in a line: Displacement of [125I]-Iodopindolol from beta2-adrenergic receptor after 1.5 hrs by liquid scintillation counting. (In general: Loss of bound radioactivity is the signal in a displacement assay; it reports binding, not function.)
For assay [2], the target named is Beta-1 adrenergic receptor (Homo sapiens, UniProt P08588). The experiment in a line: Displacement of [125I]-Iodopindolol from beta1-adrenergic receptor after 1.5 hrs by liquid scintillation counting.
In assay [3] the target is T1, 5-hydroxytryptamine receptor 1A (Homo sapiens, UniProt P08908).
T1 sequence (P08908 whole entry): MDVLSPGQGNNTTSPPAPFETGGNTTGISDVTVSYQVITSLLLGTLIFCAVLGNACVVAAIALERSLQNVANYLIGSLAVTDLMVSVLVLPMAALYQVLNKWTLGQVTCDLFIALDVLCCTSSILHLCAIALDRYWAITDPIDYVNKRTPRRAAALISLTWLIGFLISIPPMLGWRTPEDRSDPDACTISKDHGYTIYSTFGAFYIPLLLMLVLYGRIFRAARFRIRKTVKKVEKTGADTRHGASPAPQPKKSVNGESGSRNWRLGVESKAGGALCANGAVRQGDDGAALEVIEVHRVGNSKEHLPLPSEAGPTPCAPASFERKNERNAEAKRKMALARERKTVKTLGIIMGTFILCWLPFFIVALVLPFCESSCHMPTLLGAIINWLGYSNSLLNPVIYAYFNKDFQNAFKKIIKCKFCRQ
The experiment in a line: Displacement of [3H]-8-OH-DPAT from 5HT1A receptor after 1.5 hrs by liquid scintillation counting.

The target of assay [4] is Beta-1 adrenergic receptor (Rattus norvegicus, UniProt P18090). The experiment in a line: Displacement of [3H]-CGP12177 from beta1-adrenergic receptor in rat heart membranes. It counts as cell membranes, Membrane.

The results in this text go back to ChEMBL document CHEMBL1821724, “Synthesis and in vitro evaluation of derivatives of the β₁-adrenergic receptor antagonist HX-CH 44” (Bioorg Med Chem Lett, 2011).

SMILES strings stand for the structures.

Sequence of Beta-2 adrenergic receptor (P07550 whole entry): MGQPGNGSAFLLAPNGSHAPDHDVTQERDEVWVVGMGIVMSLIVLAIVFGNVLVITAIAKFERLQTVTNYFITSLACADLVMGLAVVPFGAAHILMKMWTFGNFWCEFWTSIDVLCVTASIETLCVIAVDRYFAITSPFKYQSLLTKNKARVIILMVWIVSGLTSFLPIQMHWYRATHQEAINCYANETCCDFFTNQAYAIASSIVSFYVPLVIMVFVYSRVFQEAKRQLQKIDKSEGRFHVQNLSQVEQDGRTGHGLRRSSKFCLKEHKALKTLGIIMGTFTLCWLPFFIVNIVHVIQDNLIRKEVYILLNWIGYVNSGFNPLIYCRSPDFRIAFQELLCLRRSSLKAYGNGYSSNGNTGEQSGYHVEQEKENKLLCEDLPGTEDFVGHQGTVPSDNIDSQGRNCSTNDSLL
Sequence of Beta-1 adrenergic receptor (Homo sapiens, UniProt P08588) (P08588 whole entry): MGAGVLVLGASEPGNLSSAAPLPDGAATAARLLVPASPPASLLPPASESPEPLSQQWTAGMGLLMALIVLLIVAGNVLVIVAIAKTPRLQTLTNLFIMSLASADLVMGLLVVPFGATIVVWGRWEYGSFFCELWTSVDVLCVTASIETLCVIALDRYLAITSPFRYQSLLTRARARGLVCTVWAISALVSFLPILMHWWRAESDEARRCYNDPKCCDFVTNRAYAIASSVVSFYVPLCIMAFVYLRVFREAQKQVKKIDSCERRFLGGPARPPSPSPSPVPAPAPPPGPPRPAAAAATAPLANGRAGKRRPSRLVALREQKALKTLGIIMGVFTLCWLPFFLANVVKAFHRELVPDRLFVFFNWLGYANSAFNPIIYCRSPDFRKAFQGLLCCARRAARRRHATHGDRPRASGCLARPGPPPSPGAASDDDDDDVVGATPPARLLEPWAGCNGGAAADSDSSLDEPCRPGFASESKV
Sequence of Beta-1 adrenergic receptor (Rattus norvegicus, UniProt P18090) (P18090 whole entry): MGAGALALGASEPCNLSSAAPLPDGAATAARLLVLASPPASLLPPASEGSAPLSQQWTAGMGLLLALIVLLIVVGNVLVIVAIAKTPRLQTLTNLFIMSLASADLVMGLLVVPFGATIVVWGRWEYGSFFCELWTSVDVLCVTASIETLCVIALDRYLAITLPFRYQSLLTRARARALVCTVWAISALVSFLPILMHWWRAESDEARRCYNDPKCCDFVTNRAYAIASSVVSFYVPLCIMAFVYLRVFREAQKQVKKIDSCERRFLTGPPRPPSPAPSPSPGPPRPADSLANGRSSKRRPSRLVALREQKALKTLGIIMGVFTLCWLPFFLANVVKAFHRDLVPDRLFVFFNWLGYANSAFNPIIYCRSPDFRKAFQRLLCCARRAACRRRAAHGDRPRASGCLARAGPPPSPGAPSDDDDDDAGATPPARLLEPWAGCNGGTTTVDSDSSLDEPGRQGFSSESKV

A word on the Ki: it is a dissociation constant, usually derived from enzyme kinetics or from competition with a known ligand. High values mean weaker binding, low ones tighter binding. As to `COc1ccc2nc(-c3ccc(OC[C@@H](O)CNC(C)CF)cc3)n(C)c(=O)c2c1` (stereo not given in full), the results for the Ki in assay [1], in assay [2] and in assay [3] were over 10 µM, 3 µM and over 10 µM, respectively.
On to `COc1ccc2nc(-c3ccc(OCC(O)CNC(C)CF)cc3)n(C)c(=O)c2c1` (mixture of isomers), for which the results for the Ki in assay [1], in assay [2] and in assay [3] were over 10 µM, 2.3 µM and over 10 µM, respectively.
With `COc1ccc2nc(-c3ccc(OCC(O)CNC(C)C)cc3)n(C)c(=O)c2c1` (racemic), the Ki in assay [1] worked out at 7.7 µM; in assay [2], 2.4 µM; in assay [3], 5.5 µM.
Compound `COc1ccc2nc(-c3ccc(OCC(O)CNC(C)(C)C)cc3)n([11CH3])c(=O)c2c1` (racemic) came in with a Ki in assay [4] of 0.077 µM.
